Patent publication US9956319B2, “Compositions useful as antibiofilm or antimicrobial agents and methods using same” (BAYLOR COLLEGE OF MEDICINE, priority 2012, dated 2018)

Legend:
Test in all cases: Zones of inhibition of impregnated catheter segments, modified Kirby-Bauer method
MRSE = assay type: cell-based, Staphylococcus epidermidis; conditions: for zone of inhibition at 100000 µg/mL: catheter impregnated with 100 mg/ml of each agent
Method: (§1) To evaluate the antimicrobial activity of central venous catheters treated with α-lipoic acid or its combination with gentamicin, segments of 7 French triple lumen polyurethane central venous catheters were impregnated with α-lipoic acid, gentamicin, or the combination of lipoic acid and gentamicin using the same patented method described in Example 1 with 50 mg/ml of each agent (for the final solution volume). After the impregnation process and drying, zones of inhibition were performed on one-centimeter segments according to a modified Kirby-Bauer method against MSSE, MRSE, MRSA, K. pneumoniae, E. coli, P. mirabilis, Pseudomonas aeruginosa, and Candida albicans. Each segment was half embedded in the center of a Muller-Hinton agar plate that had been previously inoculated with an individual organism. Prior to placing the catheter segments in agar, each organism was grown for 18 hours in TSB to a concentration of 0.5 McFarland (10^8 cfu/ml). A cotton swab was placed in the suspension and streaked across the surface of the Muller-Hinton agar plate to cover the entire plate. All plates were placed in a 37° C. incubator for 24 hours. Zones were measured in mm after the incubation period (Table 2).
(§2) To evaluate the antimicrobial activity of central venous catheters treated with α-lipoic acid or its combination with doxycycline, segments of 7 French triple lumen polyurethane central venous catheters were impregnated with doxycycline or the combinations of α-lipoic acid and doxycycline using the same patented method described in Example 1 (U.S. Pat. No. 6,589,591) with 50 mg/ml of each agent (for the final solution volume). After the impregnation process and drying, zones of inhibition were performed on one-centimeter segments according to a modified Kirby-Bauer method against MSSE, MRSE, MRSA, K. pneumoniae, E. coli, P. aeruginosa, P. mirabilis, and C. albicans as described in Example 2. Zones of inhibition were measured in mm after the incubation period (Table 3).
(§3) To evaluate the antimicrobial activity of central venous catheters treated with lipoamide or its combination with levofloxacin, segments of 7 French triple lumen polyurethane central venous catheters were impregnated with levofloxacin or the combinations of lipoamide and levofloxacin using the same patented method described in Example 1 (U.S. Pat. No. 6,589,591) with 100 mg/ml (final solution volume) of each agent. After the impregnation process and drying, zones of inhibition were performed on one-centimeter segments according to a modified Kirby-Bauer method against MSSE, MRSE, MRSA, vancomycin-resistant Enterococcus (VRE), K. pneumoniae, E. coli, P. aeruginosa, P. mirabilis, and C. albicans as described in Example 2. Zones of inhibition were measured in mm after the incubation period (Table 4).
as §3, with “doxycycline,” for “levofloxacin,”, “doxycycline” for “levofloxacin”, “5).” for “4).”
(§4) To evaluate the antimicrobial activity of central venous catheters treated with dihydrolipoic acid, segments of 7 French triple lumen polyurethane central venous catheters were impregnated with dihydrolipoic acid using the same patented method described in Example 1 (U.S. Pat. No. 6,589,591) with 25 mg/ml (final solution volume) of the agent. […]

MSSE = assay type: cell-based, Staphylococcus epidermidis; conditions: for zone of inhibition at 100000 µg/mL: catheter impregnated with 100 mg/ml of each agent
Method: as §1, §2, §3
as §3, with “doxycycline,” for “levofloxacin,”, “doxycycline” for “levofloxacin”, “5).” for “4).”
as §4

MRSA = assay type: cell-based, Staphylococcus aureus; conditions: for zone of inhibition at 100000 µg/mL: catheter impregnated with 100 mg/ml of each agent
Method: as §1, §2, §3
as §3, with “doxycycline,” for “levofloxacin,”, “doxycycline” for “levofloxacin”, “5).” for “4).”
as §4

[1] = tested on: vancomycin-resistant Enterococcus (VRE); assay type: cell-based; conditions: Enterococcus, catheter impregnated with 100 mg/ml of each agent
Method: as §1
(§5) To evaluate the antimicrobial activity of central venous catheters treated with lipoamide or its combination with levofloxacin, segments of 7 French triple lumen polyurethane central venous catheters were impregnated with levofloxacin or the combinations of lipoamide and levofloxacin using the same patented method described in Example 1 (U.S. Pat. No. 6,589,591) with 100 mg/ml (final solution volume) of each agent. […] Zones of inhibition were measured in mm after the incubation period (Table 4).
as §5, with “doxycycline,” for “levofloxacin,”, “doxycycline” for “levofloxacin”, “5).” for “4).”
To evaluate the antimicrobial activity of central venous catheters treated with dihydrolipoic acid, segments of 7 French triple lumen polyurethane central venous catheters were impregnated with dihydrolipoic acid using the same patented method described in Example 1 (U.S. Pat. No. 6,589,591) with 25 mg/ml (final solution volume) of the agent. […] Zones of inhibition were measured in mm after the incubation period (Table 6).

Candida albicans = assay type: cell-based; conditions: for zone of inhibition at 100000 µg/mL: catheter impregnated with 100 mg/ml of each agent
Method: as §1, §2, §3
as §3, with “doxycycline,” for “levofloxacin,”, “doxycycline” for “levofloxacin”, “5).” for “4).”
as §4

Escherichia coli = assay type: cell-based; conditions: for zone of inhibition at 100000 µg/mL: catheter impregnated with 100 mg/ml of each agent
Method: as §1, §2, §3
as §3, with “doxycycline,” for “levofloxacin,”, “doxycycline” for “levofloxacin”, “5).” for “4).”
as §4

Klebsiella pneumoniae II = assay type: cell-based; conditions: for zone of inhibition at 100000 µg/mL: Klebsiella pneumoniae II, catheter impregnated with 100 mg/ml of each agent
Method: as §1, §2, §3
as §3, with “doxycycline,” for “levofloxacin,”, “doxycycline” for “levofloxacin”, “5).” for “4).”
as §4

Klebsiella pneumoniae I = assay type: cell-based; conditions: for zone of inhibition at 100000 µg/mL: catheter impregnated with 100 mg/ml of each agent
Method: as §1, §2, §3
as §3, with “doxycycline,” for “levofloxacin,”, “doxycycline” for “levofloxacin”, “5).” for “4).”
as §4

Proteus mirabilis = assay type: cell-based; conditions: for zone of inhibition at 100000 µg/mL: catheter impregnated with 100 mg/ml of each agent
Method: as §1, §2, §3
as §3, with “doxycycline,” for “levofloxacin,”, “doxycycline” for “levofloxacin”, “5).” for “4).”
as §4

Pseudomonas aeruginosa = assay type: cell-based; conditions: Pseudomonas aeruginosa; for zone of inhibition at 100000 µg/mL: Pseudomonas aeroginosa, catheter impregnated with 100 mg/ml of each agent
Method: as §1, §2, §3
as §3, with “doxycycline,” for “levofloxacin,”, “doxycycline” for “levofloxacin”, “5).” for “4).”
as §4

[2] = Staphylococcus epidermidis, catheter impregnated with 50 mg/ml of each agent, 37° C., 24 hours
[3] = catheter impregnated with 50 mg/ml of each agent, 37° C., 24 hours

## C[C@H]1c2cccc(O)c2C(=O)C2=C(O)[C@]3(O)C(=O)C(C(N)=O)=C(O)[C@@H](N(C)C)[C@@H]3[C@@H](O)[C@@H]21 [Doxycycline, doxycycline]
MRSE; [2]
  zone of inhibition at 50000 µg/mL: 35 mm
MRSE; Staphylococcus epidermidis
  zone of inhibition at 100000 µg/mL: 38 mm
MSSE; [2]
  zone of inhibition at 50000 µg/mL: 21 mm
MSSE; Staphylococcus epidermidis
  zone of inhibition at 100000 µg/mL: 20 mm
MRSA; Staphylococcus aureus, catheter impregnated with 50 mg/ml of each agent, 37° C., 24 hours
  zone of inhibition at 50000 µg/mL: 22 mm
MRSA; Staphylococcus aureus
  zone of inhibition at 100000 µg/mL: 19 mm
[1]
  zone of inhibition at 100000 µg/mL: 30 mm
Candida albicans; [3]
  zone of inhibition at 50000 µg/mL: 13 mm
Candida albicans
  zone of inhibition at 100000 µg/mL: 5 mm
Escherichia coli; [3]
  zone of inhibition at 50000 µg/mL: 24 mm
Escherichia coli
  zone of inhibition at 100000 µg/mL: 22 mm
Klebsiella pneumoniae II
  zone of inhibition at 100000 µg/mL: 7 mm
Klebsiella pneumoniae II; Klebsiella pneumoniae, Klebsielle pneuminiae II, catheter impregnated with 50 mg/ml of each agent, 37° C., 24 hours
  zone of inhibition at 50000 µg/mL: 13 mm
Klebsiella pneumoniae I; [3]
  zone of inhibition at 50000 µg/mL: 17 mm
Klebsiella pneumoniae I
  zone of inhibition at 100000 µg/mL: 19 mm
Proteus mirabilis; [3]
  zone of inhibition at 50000 µg/mL: 4 mm
Proteus mirabilis
  zone of inhibition at 100000 µg/mL: 0 mm
Pseudomonas aeruginosa
  zone of inhibition at 100000 µg/mL: 11 mm
Pseudomonas aeruginosa; [3]
  zone of inhibition at 50000 µg/mL: 13 mm

## gentamicin
MRSE; [3]
  Zones of inhibition: 22 mm
MSSE; [3]
  Zones of inhibition: 21 mm
MRSA; [3]
  Zones of inhibition: 15 mm
Candida albicans; [3]
  Zones of inhibition: 0 mm
Escherichia coli; [3]
  Zones of inhibition: 12 mm
Klebsiella pneumoniae II; Klebsielle pneuminiae II, catheter impregnated with 50 mg/ml of each agent, 37° C., 24 hours
  Zones of inhibition: 0 mm
Klebsiella pneumoniae I; [3]
  Zones of inhibition: 13 mm
Proteus mirabilis; [3]
  Zones of inhibition: 14 mm
Pseudomonas aeruginosa; [3]
  Zones of inhibition: 5 mm

## C[C@H]1COc2c(N3CCN(C)CC3)c(F)cc3c(=O)c(C(=O)O)cn1c23 [Levofloxacin, levofloxacin]
MRSE; Staphylococcus epidermidis
  zone of inhibition at 100000 µg/mL: 31 mm
MSSE; Staphylococcus epidermidis
  zone of inhibition at 100000 µg/mL: 30 mm
MRSA; Staphylococcus aureus
  zone of inhibition at 100000 µg/mL: 21 mm
[1]
  zone of inhibition at 100000 µg/mL: 7 mm
Candida albicans
  zone of inhibition at 100000 µg/mL: 0 mm
Escherichia coli
  zone of inhibition at 100000 µg/mL: 27 mm
Klebsiella pneumoniae II
  zone of inhibition at 100000 µg/mL: 18 mm
Klebsiella pneumoniae I
  zone of inhibition at 100000 µg/mL: 24 mm
Proteus mirabilis
  zone of inhibition at 100000 µg/mL: 31 mm
Pseudomonas aeruginosa
  zone of inhibition at 100000 µg/mL: 19 mm
